Several values for one entry are separate records, joined by “and”; a condition that tells them apart may be missing. Equal values may be shown once.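 How tested: cells in 96-well plates exposed to compound for 48 hours at five concentrations. GI50 is the concentration that inhibits growth by half. TGI: total growth inhibition.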
How the values were obtained:
Assay in all cases: NCI tumour cell line growth inhibition, 48 h
SF-539 CNS = test system: SF-539 CNS
SK-MEL-28 melanoma = test system: SK-MEL-28 melanoma
SF-295 CNS = test system: SF-295 CNS
TK-10 renal = test system: TK-10 renal
U251 CNS = test system: U251 CNS
UACC-62 melanoma = test system: UACC-62 melanoma
SK-MEL-2 melanoma = test system: SK-MEL-2 melanoma
MCF7 breast = test system: MCF7 breast
MOLT-4 leukemia = test system: MOLT-4 leukemia
HCT-15 colon = test system: HCT-15 colon

Compound	GI50 (SF-539 CNS)	TGI (SF-539 CNS)	GI50 (SK-MEL-28 melanoma) [µM]	TGI (SK-MEL-28 melanoma) [µM]	GI50 (SF-295 CNS)	TGI (SF-295 CNS) [µM]	GI50 (TK-10 renal) [µM]	TGI (TK-10 renal) [µM]	GI50 (U251 CNS)	TGI (U251 CNS) [µM]	GI50 (UACC-62 melanoma)	TGI (UACC-62 melanoma) [µM]	GI50 (SK-MEL-2 melanoma)	TGI (SK-MEL-2 melanoma) [µM]	GI50 (MCF7 breast) [µM]	TGI (MCF7 breast) [µM]	GI50 (MOLT-4 leukemia)	TGI (MOLT-4 leukemia) [µM]	GI50 (HCT-15 colon)	TGI (HCT-15 colon) [µM]
C=CCN(CC=C)C(=O)c1cc(C)nc2c1c(=O)n(-c1ccccc1)c(=O)n2CCCN1CCN(c2ccccc2OC)CC1	> 50 µM	> 50 µM	> 50	> 50	> 50 µM	> 50	> 50	> 50	> 50 µM	> 50	> 50 µM	> 50	> 50 µM	> 50	> 50	> 50	> 50 µM	> 50	> 50 µM	> 50
CC[C@H](C)[C@H](NC(=O)[C@H]1CCCCN1C)C(=O)N(C)[C@H](C[C@@H](OC(C)=O)c1nc(C(=O)NC23CC(C(=O)OC)(C2)C3)cs1)C(C)C	0.000553 µM and 0.00325 µM	0.00779 µM and 0.00601 µM		> 32.5	0.00128 µM and 0.00325 µM		0.0458		0.00083 µM and 0.00325 µM	> 32.5	0.000614 µM and 0.00325 µM	> 32.5	0.00102 µM and 0.00325 µM	0.0347		> 32.5	0.000696 µM and 0.00325 µM	> 32.5	0.00333 µM and 0.00325 µM	> 32.5
Cc1cc(Cl)nc(N(CCNc2ccnc3cc(Cl)ccc23)Cc2ccco2)n1	1.87 µM	3.48 µM	1.74	3.33	1.5 µM	3.01	2.62	8.39	1.64 µM	3.09	1.69 µM	3.27	2.18 µM	4.8	1.69	3.36	2.09 µM	4.65	1.61 µM	3.69
CC(=O)Oc1c(C(=O)[O-])cc(C(C)C)cc1C(C)C.CC(=O)Oc1c(C(=O)[O-])cc(C(C)C)cc1C(C)C.CC(=O)Oc1c(C(=O)[O-])cc(C(C)C)cc1C(C)C.CC(=O)Oc1c(C(=O)[O-])cc(C(C)C)cc1C(C)C.[Cu+2].[Cu+2]	72.3 µM	> 100 µM	17.9	33.4	24.4 µM	70.5	33.7	> 100	19.9 µM	51.5	18.6 µM	39.9	40.8 µM	> 100	21	65.2	74.9 µM	> 100	27.5 µM	> 100
CN1CCN(c2c(F)cc(NC3=C(Cl)C(=O)c4ncccc4C3=O)cc2F)CC1	15.7 µM	29.1 µM	6.47	19	17.2 µM	33.5	1.93	3.67	15 µM	31.7	14.8 µM	28	13.7 µM	28	2.04	5.35	1.79 µM	6.71	1.82 µM	4.09
O=C(c1cccs1)c1c(C(F)(F)F)n([O-])c2cc(Cl)c(Cl)cc2[n+]1=O	0.719 µM	1.94 µM	1.88	4.61	0.51 µM	1.32	1.55	2.95	0.269 µM	1.66	1.18 µM	2.54	2.7 µM	> 100	0.0762	1.17		> 100	0.286 µM	0.808
COc1ccc(-c2[nH]c3ccc(OC)cc3c2C=C(C#N)C#N)cc1	1.32 µM	> 100 µM	1.66	> 100	0.306 µM	> 100	> 100	> 100	0.607 µM	> 100	0.355 µM	> 100	5.85 µM	> 100	0.382	> 100		> 100	0.766 µM	> 100
CSc1nc2nc(-c3ccccc3)c(C)c-2c2n1C(C)C(=O)N2 (stereo not drawn)	86.7 µM	> 100 µM	43.4	> 100	24 µM	> 100	38.1	> 100	68.2 µM	> 100	18.6 µM	45.2	30.1 µM	78.1	25.8	> 100	40.3 µM	> 100	51.2 µM	> 100
CC(C)Cc1ccc(C(C)/C=C2\CCC(CN(C)C)C2=O)cc1 (stereo not drawn)		30.4 µM		30.4		28.6		18.9		30.4		33.8		28.6		18		7.91		23.1
CCCCCC(=O)O[C@]1(C(C)=O)CCC2C3CCC4=CC(=O)CC[C@]4(C)C3CC[C@@]21C (stereo partly drawn)	2.94 µM	8.31 µM	2.49	6.82	2.87 µM	12.5	3.46	> 23.7	1.78 µM	4.15	1.63 µM	3.88	2.87 µM	7.73	2.51	8.39	2.21 µM	5.17	3.22 µM	12.6
CCO/C=C1\SC(=S)N(c2ccc(OCC)cc2)C1=O		> 100 µM		> 100		> 100		> 100		> 100		> 100		> 100		> 100		> 100		> 100
N#CC(C#N)=C/C=C(\Sc1ccc(Cl)cc1)c1ccc(F)cc1	0.251 µM	0.872 µM	6.61	19.3	2.74 µM	9.94	0.857	3.61	1.23 µM	> 34.5	2.03 µM	10.3	4.15 µM	> 63.6	0.982	> 100	0.281 µM		1.49 µM	> 33.1
